Data on 20 compounds can be found in patent EP0679649B1, “2,3-Dihydrobenzofuran Derivatives” (Asahi Kasei Kogyo Kabushiki Kaisha, priority 1993, dated 1994).

One series has as its target T1, serotonin 1A receptor (Rattus norvegicus, UniProt P19327).
T1 construct: The resultant precipitate was used as a rat hippocampal membrane fraction in the following procedures; from tissue; host or cells: brain (hippocampal) membrane fraction of male SD rat
T1 sequence (P19327 1-422): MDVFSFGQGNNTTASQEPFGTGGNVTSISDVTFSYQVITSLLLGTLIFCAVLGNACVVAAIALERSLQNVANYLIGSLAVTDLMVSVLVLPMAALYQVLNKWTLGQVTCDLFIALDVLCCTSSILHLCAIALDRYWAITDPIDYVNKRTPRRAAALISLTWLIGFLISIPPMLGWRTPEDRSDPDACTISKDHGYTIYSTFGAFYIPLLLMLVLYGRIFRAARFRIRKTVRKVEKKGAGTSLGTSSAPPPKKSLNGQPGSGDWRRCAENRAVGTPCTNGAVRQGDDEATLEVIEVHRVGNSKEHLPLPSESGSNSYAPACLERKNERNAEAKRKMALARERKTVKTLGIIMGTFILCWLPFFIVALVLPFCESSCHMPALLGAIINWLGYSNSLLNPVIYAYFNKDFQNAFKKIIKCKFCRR
Briefly: Affinity for serotonin 1A receptor (inhibition of 3H-8-OH-DPAT binding to rat hippocampal membrane fraction). The note with it: radioligand 3H-8-OH-DPAT, compounds tested as hydrochloride salt, read-out: 5-HT1A Ki.

Another series addresses adrenaline α1 receptor. The series is described as follows: Affinity for adrenaline α1 receptor (inhibition of 3H-Prazosin binding to rat cerebral cortex membrane fraction). Conditions: for Ki: rat cerebral cortex membrane fraction, radioligand 3H-Prazosin, compounds tested as hydrochloride salt. The procedure: A male SD strain rat (7-week old; Charles River) was decapitated, and brain was taken out therefrom quickly. Cerebral cortex of the rat was separated and extracted at […] under ice cooling. The extracted cerebral cortex was frozen at -80 °C for 24 hours or longer. This frozen system was gradually thawed under ice cooling and then, 50 mM Tris-HCl buffer (pH 7.4) was added to the brain under ice cooling to obtain a suspension. The resultant suspension was homogenized, and then subjected to centrifugation at 48000 g for 15 minutes, to thereby obtain a precipitate. The precipitate thus obtained was washed twice and resuspended in the same Tris-HCl buffer as used above. […] The total volume amount of the reaction mixture was 1 ml. The resultant reaction mixture was subjected to suction filtration using a Whatman GF/C filter, and the filter was washed three times in 50 mM Tris-HCl buffer (pH 7.4, 4 ml), transferred to a vial and then, the radioactivity of Prazosin absorbed on the filter was determined using a liquid scintillation counter. […] Further, substantially the same procedure as mentioned above was repeated, except that, instead of Prazosin, a test compound was used in a predetermined concentration. […] The binding inhibition ratios were plotted, taking the logarithmic value of the concentration of the test compound as the abscissa value, and the binding inhibition ratio as the ordinate value. Then, a curve was drawn by non-linear least square method.

In the next series the test system is male Wistar strain rats. Briefly: Anti-depression activity (forced swimming test using rats). It is filed as in vivo, rat. The note with it: for Time spent in immobile state: 30 minutes before test, observed for 6 minutes, 6 rats, physiological saline 200; for time spent in the immobile state (result in words): hydrochloride, 30 mg/kg and 60 mg/kg p.o. The text has this:
When a rat is put in a water tank, the rat struggles for its life to get out of the water (that is, the rat starts a "forced swimming"). If the rat finds that it is impossible for him to get out, the rat stops swimming and assumes an immobile state. It has been known that the administration of an antidepressant can cause a violent swimming motion in the rat for getting out of the water, with a result that the time spent in the immobile state is shortened. The shortening of the time in the immobile state of the rat in the forced swimming test by the administration of the antidepressant is well correlated to the clinical anti-depression effect. Accordingly, in developing antidepressants, the forced swimming test using a rat is the most reliable screening method. In the present test, male Wistar strain rats were used. Compounds obtained in Examples 1, 17 and 18 of the present invention (each in the form of a hydrochloride thereof) were, individually, orally administered to a rat. 30 minutes after the administration, the rat was put in a water tank and then, observed for 6 minutes. The time of the rat spent in the immobile state was measured.

For another series, the system named is mice. Briefly: Toxicity test (intraperitoneal administration to mice). It is filed as in vivo. The note with it: intraperitoneally administered to mice, 100 mg/kg.
Setting [1] is: Dose 30 mg/kg p.o. (hydrochloride), 30 mg/kg.

A word on the Ki: it is the equilibrium dissociation constant of an inhibitor or competing ligand from its target. On to `O=C(NCCNCC1Cc2ccccc2O1)c1ccccc1` (stereo not shown) [Example 19, 2-{N-(2-benzoylaminoethyl)}aminomethyl-2,3-dihydrobenzo[b]furan], for which the inhibition constant (Ki) on serotonin 1A receptor came out at 3.7 nM.
With `O=C(NCCCNCC1Cc2ccccc2O1)c1ccc(F)cc1` (stereo not shown) [Example 23, 2-[N-{3-(4-fluorobenzoylamino)propyl}]aminomethyl-2,3-dihydrobenzo[b]furan], the Ki on serotonin 1A receptor turned out to be 12 nM.
For the compound `O=C(NCCCCNCC1Cc2ccccc2O1)c1ccccc1O` (stereo not shown) [Example 29, 2,3-dihydro-2-[N-{4-(2-hydroxybenzoylamino)butyl}]aminomethylbenzo[b]furan], the inhibition constant (Ki) on serotonin 1A receptor was 5.4 nM; at adrenaline α1 receptor it was 260 nM.
Regarding `O=C(NCCCCNCC1Cc2ccccc2O1)c1ccccc1` (stereo not shown) [Example 1, 2-{N-(4-benzoylaminobutyl)}aminomethyl-2,3-dihydrobenzo[b]furan], the inhibitory constant (Ki) worked out at 2.9 nM at serotonin 1A receptor and 350 nM at adrenaline α1 receptor. Further, in the series on male Wistar strain rats (setting [1]), the “Time spent in immobile state” value came to 117 s. Further, the “time spent in the immobile state (result in words)” value (shortened to “time spent in the immobile state”) in the series on male Wistar strain rats is listed as “remarkably shortened the time spent in the immobile state”. In the series with mice, the mortality / toxicity result is reported as “none of the mice died”.
As for `O=C(NCCCCNCC1Cc2ccccc2O1)c1cccc(C(F)(F)F)c1` (stereo not shown) [Example 13, 2,3-dihydro-2-[N-{4-(3-trifluoromethylbenzoylamino)butyl}]aminomethylbenzo[b]furan], the Ki at serotonin 1A receptor came out at 5.3 nM; at adrenaline α1 receptor, 380 nM.
A word on the Kd: it is the constant that tells how readily two partners part at equilibrium. For the compound ^3H-Prazosin [reference compound], the Kd at adrenaline α1 receptor (value used in the Ki calculation, read-out: Kd of the radioactive ligand for the adrenaline α1 receptor) is 0.133 nM.
`O=C(NCCCCNCC1Cc2ccccc2O1)c1cccc(F)c1` (stereo not shown) [Example 10, 2,3-dihydro-2-[N-{4-(3-fluorobenzoylamino)butyl}]aminomethylbenzo[b]furan]: the Ki came out at 3 nM at serotonin 1A receptor and 420 nM at adrenaline α1 receptor.
For `COc1cccc(C(=O)NCCCCNCC2Cc3ccccc3O2)c1` (stereo not shown) [Example 7, 2,3-dihydro-2-[N-{4-(3-methoxybenzoylamino)butyl}]aminomethylbenzo[b]furan] the same measures were 4.3 nM and 340 nM.
On to `Cc1ccc(C(=O)NCCCCNCC2Cc3ccccc3O2)cc1` (stereo not shown) [Example 5, 2,3-dihydro-2-[N-{4-(4-methylbenzoylamino)-butyl}]aminomethylbenzo[b]furan], for which the Ki on serotonin 1A receptor was 12 nM; on adrenaline α1 receptor, 290 nM.
Consider `CN(CCCCNC(=O)c1ccccc1)CC1Cc2ccccc2O1` (stereo not shown) [Example 24, 2-{N-(4-benzoylaminobutyl)-N-methyl}aminomethyl-2,3-dihydrobenzo[b]furan], for which the Ki turned out to be 11 nM at serotonin 1A receptor and 760 nM at adrenaline α1 receptor.
For `O=S(=O)(NCCCCNCC1Cc2ccccc2O1)c1ccccc1` (stereo not shown) [Example 2, 2-{N-(4-benzenesulfonamidobutyl)}aminomethyl-2,3-dihydrobenzo[b]furan], in that order: 11 nM and 270 nM.
`Cc1cccc(C(=O)NCCCCNCC2Cc3ccccc3O2)c1` (stereo not shown) [Example 4, 2,3-dihydro-2-[N-{4-(3-methylbenzoylamino)butyl}]aminomethylbenzo[b]furan]: the inhibitory constant (Ki) at serotonin 1A receptor amounted to 1.2 nM; at adrenaline α1 receptor it was 270 nM.
Consider `O=C(NCCNCC1Cc2ccccc2O1)c1ccc(F)cc1` (stereo not shown) [Example 21, 2-[N-{2-(4-fluorobenzoyl)aminoethyl}]aminomethyl-2,3-dihydrobenzo[b]furan], for which the Ki at serotonin 1A receptor was determined as 2 nM.
For `O=C(NCCCCNCC1Cc2ccccc2O1)c1ccccc1F` (stereo not shown) [Example 9, 2,3-dihydro-2-[N-{4-(2-fluorobenzoylamino)butyl}]aminomethylbenzo[b]furan], the Ki turned out to be 8.2 nM at serotonin 1A receptor and 330 nM on adrenaline α1 receptor.
In the case of `Cc1cccc(C(=O)NCCNCC2Cc3ccccc3O2)c1` (stereo not shown) [Example 20, 2-[N-{2-(3-methylbenzoylamino)ethyl}]aminomethyl-2,3-dihydrobenzo[b]furan], the inhibitory constant (Ki) at serotonin 1A receptor came out at 1.6 nM.
For `CCN(CCCCNC(=O)c1ccccc1)CC1Cc2ccccc2O1` (stereo not shown) [Example 25, 2-{N-(4-benzoylaminobutyl)-N-ethyl}aminomethyl-2,3-dihydrobenzo[b]furan], the inhibitory constant (Ki) at serotonin 1A receptor stood at 3.1 nM; at adrenaline α1 receptor, 710 nM.
Turning to `O=C(NCCCCNCC1Cc2ccccc2O1)c1ccccc1` (single isomer, unassigned; (+)) [Example 17, (+)-2-{N-(4-benzoylamino)butyl}aminomethyl-2,3-dihydrobenzo[b]furan], the “Time spent in immobile state” value with male Wistar strain rats (Dose 60 mg/kg p.o. (hydrochloride)) is 142 s. The “time spent in the immobile state” value with male Wistar strain rats is given as “remarkably shortened the time spent in the immobile state”.
In the case of `O=C(NCCCCNCC1Cc2ccccc2O1)c1ccc(F)cc1` (stereo not shown) [Example 11, 2,3-dihydro-2-[N-{4-(4-fluorobenzoylamino)butyl}]aminomethylbenzo[b]furan], the Ki at serotonin 1A receptor was 2.6 nM; on adrenaline α1 receptor, 300 nM.
Take `O=C(NCCCCNCC1Cc2ccccc2O1)c1ccccc1` (single isomer, unassigned; (-)) [Example 18, (-)-2-{N-(4-benzoylaminobutyl)}aminomethyl-2,3-dihydrobenzo[b]furan]: the Ki on serotonin 1A receptor worked out at 1.3 nM; at adrenaline α1 receptor, 270 nM. Moreover, the “Time spent in immobile state” value in the series with male Wistar strain rats (setting [1]) is 142 s. Moreover, the “time spent in the immobile state” value in the series on male Wistar strain rats is listed as “remarkably shortened the time spent in the immobile state”.
For `O=C(NCCCCNCC1Cc2ccccc2O1)c1cccc([N+](=O)[O-])c1` (stereo not shown) [Example 15, 2,3-dihydro-2-[N-{4-(3-nitrobenzoylamino)butyl}]aminomethylbenzo[b]furan], the values for the Ki on serotonin 1A receptor and at adrenaline α1 receptor were 11 nM and 250 nM, respectively.
